Values of other authors as cited in patent US9744133B2, “Enhanced stability of novel liquid compositions” (Pfizer Inc., priority 2013, dated 2017).

Conditions: 25° C.

Solubility in water: approximately 4 % by weight
Compound: COc1ccccc1OCC(O)CO (stereo not shown) [Guaifenesin]
